Tests used:
[1] = target: Serine/threonine-protein kinase/endoribonuclease IRE1 (Homo sapiens) (UniProt O75460); assay: Inhibition of wild-type human partial length ERN1 (S551 to E852 residues) expressed in mammalian expression system at 1 uM by Kinomescan method relative to control
[2] = target: Ribosomal protein S6 kinase beta-1 (Homo sapiens) (UniProt P23443); assay: Inhibition of wild-type human partial length S6K1 (M1 to S421 residues) expressed in mammalian expression system at 1 uM by Kinomescan method relative to control
Sequence of Ribosomal protein S6 kinase beta-1 (Homo sapiens) (P23443 whole entry, looked up, the tested form may be a part): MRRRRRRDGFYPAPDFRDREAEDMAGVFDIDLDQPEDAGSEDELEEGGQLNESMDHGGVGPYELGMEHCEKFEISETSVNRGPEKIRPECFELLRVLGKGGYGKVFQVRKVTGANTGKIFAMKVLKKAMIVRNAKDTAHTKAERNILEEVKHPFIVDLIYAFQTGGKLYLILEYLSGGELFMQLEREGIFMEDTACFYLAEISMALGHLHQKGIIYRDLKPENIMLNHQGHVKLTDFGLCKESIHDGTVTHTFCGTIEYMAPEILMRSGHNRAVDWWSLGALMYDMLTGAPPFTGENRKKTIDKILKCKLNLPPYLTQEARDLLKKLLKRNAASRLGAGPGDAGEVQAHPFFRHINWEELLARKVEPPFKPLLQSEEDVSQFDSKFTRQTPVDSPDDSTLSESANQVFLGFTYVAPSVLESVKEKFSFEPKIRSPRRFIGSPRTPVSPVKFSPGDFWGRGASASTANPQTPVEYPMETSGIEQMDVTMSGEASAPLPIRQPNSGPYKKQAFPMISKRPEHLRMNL

[3] = tested on: Tyrosine-protein kinase ABL1 (Homo sapiens), P00519 [T315I]; assay: Inhibition of human non-phosphorylated ABL1 T315I mutant (S229 to K512 residues) expressed in mammalian expression system at 1 uM by Kinomescan method relative to control
[4] = target: Ephrin type-B receptor 2 (Homo sapiens) (UniProt P29323); assay: Inhibition of wild-type human partial length EPHB2 (I597 to L902 residues) expressed in bacterial expression system at 1 uM by Kinomescan method relative to control
[5] = target: Myosin-IIIa (Homo sapiens) (UniProt Q8NEV4); assay: Inhibition of wild-type human partial length MYO3A (M1 to K338 residues) expressed in bacterial expression system at 1 uM by Kinomescan method relative to control
Sequence of Myosin-IIIa (Homo sapiens) (Q8NEV4 whole entry, the tested form may be a part): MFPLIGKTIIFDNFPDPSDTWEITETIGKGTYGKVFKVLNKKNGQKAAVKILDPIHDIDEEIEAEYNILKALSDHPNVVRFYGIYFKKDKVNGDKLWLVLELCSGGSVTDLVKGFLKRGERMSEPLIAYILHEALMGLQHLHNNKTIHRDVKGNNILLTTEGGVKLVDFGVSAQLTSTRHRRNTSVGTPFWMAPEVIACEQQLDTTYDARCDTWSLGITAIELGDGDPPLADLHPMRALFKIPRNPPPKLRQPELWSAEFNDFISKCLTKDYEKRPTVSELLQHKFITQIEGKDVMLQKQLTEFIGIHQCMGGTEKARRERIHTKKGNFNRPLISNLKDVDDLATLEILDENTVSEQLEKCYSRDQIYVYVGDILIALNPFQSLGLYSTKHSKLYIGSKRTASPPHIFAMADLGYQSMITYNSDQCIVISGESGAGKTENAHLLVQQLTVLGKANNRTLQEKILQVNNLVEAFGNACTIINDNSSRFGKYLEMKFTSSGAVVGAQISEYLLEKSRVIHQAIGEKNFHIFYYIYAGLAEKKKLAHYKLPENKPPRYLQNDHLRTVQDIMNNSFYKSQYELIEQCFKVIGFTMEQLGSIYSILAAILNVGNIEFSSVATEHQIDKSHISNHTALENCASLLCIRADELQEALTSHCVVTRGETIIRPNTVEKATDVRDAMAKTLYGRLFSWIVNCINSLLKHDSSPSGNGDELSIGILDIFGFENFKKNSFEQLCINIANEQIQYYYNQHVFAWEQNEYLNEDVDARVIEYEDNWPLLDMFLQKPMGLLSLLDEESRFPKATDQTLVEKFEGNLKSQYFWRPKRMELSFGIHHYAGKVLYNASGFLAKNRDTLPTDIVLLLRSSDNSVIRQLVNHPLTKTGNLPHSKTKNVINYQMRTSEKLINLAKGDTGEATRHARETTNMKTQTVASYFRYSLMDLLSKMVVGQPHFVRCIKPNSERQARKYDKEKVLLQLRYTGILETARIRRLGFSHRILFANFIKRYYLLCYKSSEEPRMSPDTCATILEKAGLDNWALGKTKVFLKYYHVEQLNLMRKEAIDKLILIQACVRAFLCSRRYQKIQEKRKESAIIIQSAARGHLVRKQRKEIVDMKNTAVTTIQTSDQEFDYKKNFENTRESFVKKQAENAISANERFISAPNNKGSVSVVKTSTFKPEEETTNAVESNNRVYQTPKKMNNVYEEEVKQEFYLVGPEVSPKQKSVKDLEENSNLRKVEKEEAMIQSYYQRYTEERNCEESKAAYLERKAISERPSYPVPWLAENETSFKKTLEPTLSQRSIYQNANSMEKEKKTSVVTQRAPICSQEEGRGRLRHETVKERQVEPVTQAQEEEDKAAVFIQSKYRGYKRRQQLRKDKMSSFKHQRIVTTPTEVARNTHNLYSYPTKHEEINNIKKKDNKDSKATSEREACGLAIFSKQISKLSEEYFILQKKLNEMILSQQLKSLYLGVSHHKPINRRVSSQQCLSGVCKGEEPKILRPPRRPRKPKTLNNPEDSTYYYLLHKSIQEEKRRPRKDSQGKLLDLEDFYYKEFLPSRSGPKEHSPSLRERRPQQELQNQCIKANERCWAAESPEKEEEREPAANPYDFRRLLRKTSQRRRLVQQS

[6] = tested on: Mast/stem cell growth factor receptor Kit (Homo sapiens), P10721 [D816V]; assay: Inhibition of human partial length KIT D816V mutant (I571 to D952 residues) expressed in bacterial expression system at 1 uM by Kinomescan method relative to control
[7] = tested on: Epidermal growth factor receptor (Homo sapiens), P00533 [UNDEFINED MUTATION]; assay: Inhibition of human partial length EGFR L747-E749del/A750P mutant expressed in bacterial expression system at 1 uM by Kinomescan method relative to control
[8] = tested on: Epidermal growth factor receptor (Homo sapiens), P00533 [G719C]; assay: Inhibition of human partial length EGFR G719C mutant (R669 to V1011 residues) expressed in bacterial expression system at 1 uM by Kinomescan method relative to control
[9] = tested on: Tyrosine-protein kinase ABL1 (Homo sapiens), P00519 [H396P]; assay: Inhibition of human phosphorylated ABL1 H396P mutant (S229 to K512 residues) expressed in mammalian expression system at 1 uM by Kinomescan method relative to control
[10] = tested on: Phosphatidylinositol 4,5-bisphosphate 3-kinase catalytic subunit alpha isoform (Homo sapiens), P42336 [E545A]; assay: Inhibition of human partial length PIK3CA E545A mutant (R108 to N1068 residues) expressed in mammalian expression system at 1 uM by Kinomescan method relative to control
Sequence of Phosphatidylinositol 4,5-bisphosphate 3-kinase catalytic subunit alpha isoform (Homo sapiens), P42336 [E545A] (P42336 whole entry E545A, the tested form may be a part, canonical isoform): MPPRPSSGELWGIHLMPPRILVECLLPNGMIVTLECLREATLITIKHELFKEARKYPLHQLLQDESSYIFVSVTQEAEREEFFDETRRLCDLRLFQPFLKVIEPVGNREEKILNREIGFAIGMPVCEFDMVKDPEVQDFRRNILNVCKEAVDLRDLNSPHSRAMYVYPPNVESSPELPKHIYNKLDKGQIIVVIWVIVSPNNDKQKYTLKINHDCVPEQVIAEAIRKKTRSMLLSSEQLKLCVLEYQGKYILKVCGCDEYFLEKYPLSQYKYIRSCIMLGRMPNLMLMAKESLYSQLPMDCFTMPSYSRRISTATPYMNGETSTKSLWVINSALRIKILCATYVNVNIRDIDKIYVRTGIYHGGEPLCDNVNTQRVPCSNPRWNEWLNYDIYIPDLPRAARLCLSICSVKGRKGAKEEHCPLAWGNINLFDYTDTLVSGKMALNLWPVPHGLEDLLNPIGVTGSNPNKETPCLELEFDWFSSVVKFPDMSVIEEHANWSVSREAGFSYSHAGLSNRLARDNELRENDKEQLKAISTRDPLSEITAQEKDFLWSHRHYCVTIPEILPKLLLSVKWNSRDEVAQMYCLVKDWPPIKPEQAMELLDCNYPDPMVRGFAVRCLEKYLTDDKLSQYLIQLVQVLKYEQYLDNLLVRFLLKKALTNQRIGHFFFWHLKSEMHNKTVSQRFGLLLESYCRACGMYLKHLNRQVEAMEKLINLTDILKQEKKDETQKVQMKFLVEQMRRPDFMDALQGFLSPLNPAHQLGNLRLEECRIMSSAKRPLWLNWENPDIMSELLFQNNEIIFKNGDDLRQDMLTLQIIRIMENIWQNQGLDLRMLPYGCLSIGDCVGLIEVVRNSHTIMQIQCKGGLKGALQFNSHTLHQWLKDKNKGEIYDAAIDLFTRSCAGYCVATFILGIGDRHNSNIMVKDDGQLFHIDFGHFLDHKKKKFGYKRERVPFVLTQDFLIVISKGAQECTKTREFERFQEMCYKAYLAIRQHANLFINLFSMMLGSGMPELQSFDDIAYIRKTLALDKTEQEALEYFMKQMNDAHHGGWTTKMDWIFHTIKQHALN

[11] = target: Calcium/calmodulin-dependent protein kinase type 1D (Homo sapiens) (UniProt Q8IU85); assay: Inhibition of wild-type human partial length CAMK1D (M1 to K299 residues) expressed in bacterial expression system at 1 uM by Kinomescan method relative to control
Sequence of Calcium/calmodulin-dependent protein kinase type 1D (Homo sapiens) (Q8IU85 whole entry, looked up, the tested form may be a part): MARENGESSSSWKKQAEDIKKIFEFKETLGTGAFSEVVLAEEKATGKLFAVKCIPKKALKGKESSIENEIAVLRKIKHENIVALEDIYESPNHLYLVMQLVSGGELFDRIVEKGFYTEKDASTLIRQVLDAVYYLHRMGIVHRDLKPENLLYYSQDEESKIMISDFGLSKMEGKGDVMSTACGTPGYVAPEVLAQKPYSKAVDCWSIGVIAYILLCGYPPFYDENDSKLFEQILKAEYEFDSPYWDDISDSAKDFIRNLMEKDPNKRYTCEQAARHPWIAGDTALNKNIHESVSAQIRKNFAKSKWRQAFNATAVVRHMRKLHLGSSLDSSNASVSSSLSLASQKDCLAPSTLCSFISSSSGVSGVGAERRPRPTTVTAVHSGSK

[12] = target: Calcium/calmodulin-dependent protein kinase kinase 2 (Homo sapiens) (UniProt Q96RR4); assay: Inhibition of wild-type human partial length CAMKK2 (D65 to V471 residues) expressed in bacterial expression system at 1 uM by Kinomescan method relative to control
[13] = target: Serine/threonine-protein kinase Nek11 (Homo sapiens) (UniProt Q8NG66); assay: Inhibition of wild-type human partial length NEK11 (M1 to E313 residues) expressed in mammalian expression system at 1 uM by Kinomescan method relative to control
[14] = target: Cyclin-dependent kinase 8 (Homo sapiens) (UniProt P49336); assay: Inhibition of wild-type human partial length CDK8 (M1 to T360 residues) expressed in bacterial expression system at 10 uM by Kinomescan method relative to control
[15] = target: Protein kinase C epsilon type (Homo sapiens) (UniProt Q02156); assay: Inhibition of wild-type human partial length PRKCE (A378 to P737 residues) expressed in mammalian expression system at 10 uM by Kinomescan method relative to control
[16] = target: TRAF2 and NCK-interacting protein kinase (Homo sapiens) (UniProt Q9UKE5); assay: Inhibition of wild-type human partial length TNIK (D4 to K311 residues) expressed in bacterial expression system at 10 uM by Kinomescan method relative to control
[17] = target: Bone morphogenetic protein receptor type-1B (Homo sapiens) (UniProt O00238); assay: Inhibition of wild-type human partial length BMPR1B (D178 to L502 residues) expressed in mammalian expression system at 10 uM by Kinomescan method relative to control
[18] = target: cAMP-dependent protein kinase catalytic subunit PRKX (Homo sapiens) (UniProt P51817); assay: Inhibition of wild-type human partial length PRKX (M1 to F358 residues) expressed in bacterial expression system at 10 uM by Kinomescan method relative to control
[19] = target: Serine/threonine-protein kinase D2 (Homo sapiens) (UniProt Q9BZL6); assay: Inhibition of wild-type human partial length PRKD2 (A519 to E838 residues) expressed in bacterial expression system at 10 uM by Kinomescan method relative to control
Sequence of Serine/threonine-protein kinase D2 (Homo sapiens) (Q9BZL6 whole entry, the tested form may be a part): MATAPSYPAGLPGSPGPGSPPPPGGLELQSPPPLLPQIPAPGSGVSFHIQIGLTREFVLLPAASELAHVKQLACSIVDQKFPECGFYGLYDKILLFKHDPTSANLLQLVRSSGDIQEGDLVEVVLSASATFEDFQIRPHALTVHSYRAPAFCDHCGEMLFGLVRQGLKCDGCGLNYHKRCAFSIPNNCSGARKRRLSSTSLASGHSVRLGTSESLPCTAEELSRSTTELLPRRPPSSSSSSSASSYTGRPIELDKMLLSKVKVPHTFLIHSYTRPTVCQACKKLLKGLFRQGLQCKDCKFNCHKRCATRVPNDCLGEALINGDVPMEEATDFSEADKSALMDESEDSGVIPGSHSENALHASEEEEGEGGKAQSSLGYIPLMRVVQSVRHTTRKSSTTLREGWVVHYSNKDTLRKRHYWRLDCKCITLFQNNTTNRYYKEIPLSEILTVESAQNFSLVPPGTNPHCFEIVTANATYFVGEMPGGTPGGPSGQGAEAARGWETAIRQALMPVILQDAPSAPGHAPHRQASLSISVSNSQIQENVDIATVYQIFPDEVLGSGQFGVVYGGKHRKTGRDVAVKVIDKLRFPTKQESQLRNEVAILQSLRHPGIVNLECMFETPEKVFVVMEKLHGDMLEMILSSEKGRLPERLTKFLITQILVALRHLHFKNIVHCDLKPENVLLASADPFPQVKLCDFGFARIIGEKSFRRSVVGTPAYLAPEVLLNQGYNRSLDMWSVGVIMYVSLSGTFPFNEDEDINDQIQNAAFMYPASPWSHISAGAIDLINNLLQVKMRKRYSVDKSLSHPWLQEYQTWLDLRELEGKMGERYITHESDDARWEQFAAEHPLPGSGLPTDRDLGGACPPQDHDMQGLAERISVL

[20] = target: Dual specificity tyrosine-phosphorylation-regulated kinase 2 (Homo sapiens) (UniProt Q92630); assay: Inhibition of wild-type human full length DYRK2 (M1 to S528 residues) expressed in mammalian expression system at 10 uM by Kinomescan method relative to control
[21] = target: Dual specificity mitogen-activated protein kinase kinase 5 (Homo sapiens) (UniProt Q13163); assay: Inhibition of wild-type human partial length MEK5 (L98 to P448 residues) expressed in mammalian expression system at 10 uM by Kinomescan method relative to control
Sequence of Dual specificity mitogen-activated protein kinase kinase 5 (Homo sapiens) (Q13163 whole entry, the tested form may be a part): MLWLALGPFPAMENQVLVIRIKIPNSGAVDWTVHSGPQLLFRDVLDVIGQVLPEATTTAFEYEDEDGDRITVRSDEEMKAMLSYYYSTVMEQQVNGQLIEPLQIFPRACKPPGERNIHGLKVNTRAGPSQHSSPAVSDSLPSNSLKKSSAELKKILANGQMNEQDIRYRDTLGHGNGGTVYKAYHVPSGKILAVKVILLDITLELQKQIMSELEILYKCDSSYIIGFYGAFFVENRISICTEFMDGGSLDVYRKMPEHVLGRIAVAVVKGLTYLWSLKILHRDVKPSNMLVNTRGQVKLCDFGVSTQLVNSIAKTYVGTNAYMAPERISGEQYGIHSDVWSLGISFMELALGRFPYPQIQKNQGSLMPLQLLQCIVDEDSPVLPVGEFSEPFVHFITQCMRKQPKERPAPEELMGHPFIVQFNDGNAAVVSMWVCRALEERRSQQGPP

[22] = target: Serine/threonine-protein kinase TBK1 (Homo sapiens) (UniProt Q9UHD2); assay: Inhibition of wild-type human full length TBK1 (M1 to L729 residues) expressed in mammalian expression system at 10 uM by Kinomescan method relative to control
[23] = target: Serine/threonine-protein kinase 16 (Homo sapiens) (UniProt O75716); assay: Inhibition of wild-type human partial length STK16 (G11 to I305 residues) expressed in bacterial expression system at 10 uM by Kinomescan method relative to control
[24] = target: Myosin-IIIa (Homo sapiens) (UniProt Q8NEV4); assay: Inhibition of wild-type human partial length MYO3A (M1 to K338 residues) expressed in bacterial expression system at 10 uM by Kinomescan method relative to control
[25] = target: Serine/threonine-protein kinase Chk2 (Homo sapiens) (UniProt O96017); assay: Inhibition of wild-type human partial length CHEK2 (S253 to E574 residues) expressed in bacterial expression system at 10 uM by Kinomescan method relative to control
[26] = target: High affinity nerve growth factor receptor (Homo sapiens) (UniProt P04629); assay: Inhibition of wild-type human partial length TRKA (G475 to G790 residues) expressed in mammalian expression system at 10 uM by Kinomescan method relative to control
[27] = target: Ribosomal protein S6 kinase alpha-1 (Homo sapiens) (UniProt Q15418); assay: Inhibition of wild-type human partial length C-terminal RSK1 kinase domain 2 (P360 to L681 residues) expressed in bacterial expression system at 10 uM by Kinomescan method relative to control

O=C(Nc1cccc([C@@H]2CN(c3ncnc4[nH]ccc34)CCN2CCO)c1)Nc1c(F)cccc1N1CCCC1 showed an inhibition [1] of 56%, an inhibition [2] of 48% and an inhibition [3] of 100%. It also gave an inhibition [4] of 85%, an inhibition [5] of 82% and an inhibition [6] of 2%. For the same compound, the inhibition [7] was 87%, the inhibition [8] was 100% and the inhibition [9] was 71%. The inhibition [10] was 65%, the inhibition [11] was 100% and the inhibition [12] was 94%. The inhibition [13] was 86%.
O=C(Nc1cccc([C@H]2CCCN(c3ncnc4[nH]ccc34)C2)c1)Nc1ccccc1N1CCCC1 gave an inhibition [14] of 53%, an inhibition [15] of 59% and an inhibition [16] of 26%. For the same compound, the inhibition [17] was 46%, the inhibition [18] was 96% and the inhibition [19] was 85%. It also gave an inhibition [20] of 78%, an inhibition [21] of 18% and an inhibition [22] of 57%. It also gave an inhibition [23] of 18%, an inhibition [24] of 52% and an inhibition [25] of 47%. For the same compound, the inhibition [26] was 26% and the inhibition [27] was 60%.

Reference: ChEMBL document CHEMBL4387741, “Optimization of novel reversible Bruton's tyrosine kinase inhibitors identified using Tethering-fragment-based screens” (Bioorg Med Chem, 2019)
